Measurements as given in PubChem BioAssay AID2060898 (Molecular Pharmacology Branch, DTP, NCI, 2025).

Tested on: 616215-338-R-J1-PDC complex spheroid viability
Experiment: Anticancer human tumor 616215-338-R-J1-PDC patient-derived colon adenocarcinoma cell line growth inhibition [RAS]
Conditions: for IC50: curve of first compound; for viability, T/C: stronger effect = lower value; active = viability on the fitted dose curve at most 10% of control; inactive = the rest
In short: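 Multi-cell-type spheroids: tumor cells plus HUVEC endothelial cells and mesenchymal stem cells. RAS-pathway inhibitors were combined with targeted agents, each dosed in half-log steps down from clinical Cmax, or from 10 microM when Cmax was unknown.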

[1] = second compound 0.000949 µM, first compound 0.00316 µM
[2] = second compound 0.000949 µM, first compound 0.01 µM
[3] = second compound 0.000949 µM, first compound 0.0316 µM
[4] = second compound 0.000949 µM, first compound 0.1 µM
[5] = second compound 0.003 µM, first compound 0.00316 µM
[6] = second compound 0.003 µM, first compound 0.01 µM
[7] = second compound 0.003 µM, first compound 0.0316 µM
[8] = second compound 0.003 µM, first compound 0.1 µM
[9] = second compound 0.00949 µM, first compound 0.00316 µM
[10] = second compound 0.00949 µM, first compound 0.01 µM
[11] = second compound 0.00949 µM, first compound 0.0316 µM
[12] = second compound 0.00949 µM, first compound 0.1 µM
[13] = second compound 0.03 µM, first compound 0.00316 µM
[14] = second compound 0.03 µM, first compound 0.01 µM
[15] = second compound 0.03 µM, first compound 0.0316 µM
[16] = second compound 0.03 µM, first compound 0.1 µM
[17] = second compound 0.0949 µM, first compound 0.00316 µM
[18] = second compound 0.0949 µM, first compound 0.01 µM
[19] = second compound 0.0949 µM, first compound 0.0316 µM
[20] = second compound 0.0949 µM, first compound 0.1 µM
[21] = second compound 0.3 µM, first compound 0.00316 µM
[22] = second compound 0.3 µM, first compound 0.01 µM
[23] = second compound 0.3 µM, first compound 0.0316 µM
[24] = second compound 0.3 µM, first compound 0.1 µM
[25] = second compound 0.000949 µM, first compound 0.316 µM
[26] = second compound 0.000949 µM, first compound 1 µM
[27] = second compound 0.000949 µM, first compound 3.16 µM
[28] = second compound 0.000949 µM, first compound 10 µM
[29] = second compound 0.003 µM, first compound 0.316 µM
[30] = second compound 0.003 µM, first compound 1 µM
[31] = second compound 0.003 µM, first compound 3.16 µM
[32] = second compound 0.003 µM, first compound 10 µM
[33] = second compound 0.00949 µM, first compound 0.316 µM
[34] = second compound 0.00949 µM, first compound 1 µM
[35] = second compound 0.00949 µM, first compound 3.16 µM
[36] = second compound 0.00949 µM, first compound 10 µM
[37] = second compound 0.03 µM, first compound 0.316 µM
[38] = second compound 0.03 µM, first compound 1 µM
[39] = second compound 0.03 µM, first compound 3.16 µM
[40] = second compound 0.03 µM, first compound 10 µM
[41] = second compound 0.0949 µM, first compound 0.316 µM
[42] = second compound 0.0949 µM, first compound 1 µM
[43] = second compound 0.0949 µM, first compound 3.16 µM
[44] = second compound 0.0949 µM, first compound 10 µM
[45] = second compound 0.3 µM, first compound 0.316 µM
[46] = second compound 0.3 µM, first compound 1 µM
[47] = second compound 0.3 µM, first compound 3.16 µM
[48] = second compound 0.3 µM, first compound 10 µM
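Also: spheroids exposed to agents for seven days before viability readout.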
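For viability, T/C in this document: 100% = DMSO vehicle control viability.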

CC(C)n1nc(-c2ccc3oc(N)nc3c2)c2c(N)ncnc21 + CCn1c(-c2cc(N3CCN(C)CC3)cnc2C(C)OC)c2c3cc(ccc31)-c1csc(n1)CC(NC(=O)C1CC1C)C(=O)N1CCCC(N1)C(=O)OCC(C)(C)C2
inactive: viability, T/C (second compound 0.000949 µM, first compound 0.000316 µM) 103% | viability, T/C (second compound 0.000949 µM, first compound 0.001 µM) 93.7% | viability, T/C [1] 110% | viability, T/C [2] 116% | viability, T/C [3] 118% | viability, T/C [4] 63.8% | viability, T/C (second compound 0.003 µM, first compound 0.000316 µM) 114% | viability, T/C (second compound 0.003 µM, first compound 0.001 µM) 108% | viability, T/C [5] 108% | viability, T/C [6] 103% | viability, T/C [7] 86.2% | viability, T/C [8] 39.2% | viability, T/C (second compound 0.00949 µM, first compound 0.000316 µM) 77.2% | viability, T/C (second compound 0.00949 µM, first compound 0.001 µM) 71.4% | viability, T/C [9] 64.5% | viability, T/C [10] 78.8% | viability, T/C [11] 54.8% | viability, T/C [12] 36.4% | viability, T/C (second compound 0.03 µM, first compound 0.000316 µM) 41% | viability, T/C (second compound 0.03 µM, first compound 0.001 µM) 51.2% | viability, T/C [13] 39.5% | viability, T/C [14] 37.3% | viability, T/C [15] 39% | viability, T/C [16] 25% | viability, T/C (second compound 0.0949 µM, first compound 0.000316 µM) 41% | viability, T/C (second compound 0.0949 µM, first compound 0.001 µM) 39.3% | viability, T/C [17] 31.8% | viability, T/C [18] 30.9% | viability, T/C [19] 30.9% | viability, T/C [20] 21.3% | viability, T/C (second compound 0.3 µM, first compound 0.000316 µM) 35.9% | viability, T/C (second compound 0.3 µM, first compound 0.001 µM) 31.1% | viability, T/C [21] 35.9% | viability, T/C [22] 30.1% | viability, T/C [23] 27.8% | viability, T/C [24] 22.8%
> 100 nM: IC50 (second compound 0.000949 µM)
42.8 nM: IC50 (second compound 0.00949 µM)
< 0.316 nM: IC50 (second compound 0.03 µM) | IC50 (second compound 0.0949 µM) | IC50 (second compound 0.3 µM)
77.1 nM: IC50 (second compound 0.003 µM)

CC1(O)CCCC1n1c(=O)c(C(F)F)cc2cnc(NC3CCN(S(C)(=O)=O)CC3)nc21 (stereo not drawn) + CCn1c(-c2cc(N3CCN(C)CC3)cnc2C(C)OC)c2c3cc(ccc31)-c1csc(n1)CC(NC(=O)C1CC1C)C(=O)N1CCCC(N1)C(=O)OCC(C)(C)C2
199 nM: IC50 (second compound 0.003 µM)
37.4 nM: IC50 (second compound 0.00949 µM)
inactive: viability, T/C [3] 122% | viability, T/C [4] 111% | viability, T/C [25] 54.4% | viability, T/C [26] 47.8% | viability, T/C [27] 46.6% | viability, T/C [7] 113% | viability, T/C [8] 65.1% | viability, T/C [29] 30.5% | viability, T/C [30] 36.8% | viability, T/C [31] 38.9% | viability, T/C [32] 4.05% | viability, T/C [11] 49.9% | viability, T/C [12] 51.1% | viability, T/C [33] 29.7% | viability, T/C [34] 23.9% | viability, T/C [35] 31.9% | viability, T/C [15] 47.4% | viability, T/C [16] 28% | viability, T/C [37] 22.7% | viability, T/C [38] 22.2% | viability, T/C [39] 36.3% | viability, T/C [40] 2.37% | viability, T/C [19] 35% | viability, T/C [20] 27.4% | viability, T/C [41] 21.3% | viability, T/C [42] 22.1% | viability, T/C [43] 28.7% | viability, T/C [44] 2.08% | viability, T/C [23] 31% | viability, T/C [24] 32% | viability, T/C [45] 16.4% | viability, T/C [46] 30.3% | viability, T/C [47] 29.7% | viability, T/C [48] 4.15%
active: viability, T/C [28] 2% | viability, T/C [36] 2.73%
1130 nM: IC50 (second compound 0.000949 µM)
< 31.6 nM: IC50 (second compound 0.03 µM) | IC50 (second compound 0.0949 µM) | IC50 (second compound 0.3 µM)

CCN1CCN(Cc2ccc(Nc3ncc(F)c(-c4cc(F)c5nc(C)n(C(C)C)c5c4)n3)nc2)CC1 + CCn1c(-c2cc(N3CCN(C)CC3)cnc2C(C)OC)c2c3cc(ccc31)-c1csc(n1)CC(NC(=O)C1CC1C)C(=O)N1CCCC(N1)C(=O)OCC(C)(C)C2
695 nM: IC50 (second compound 0.003 µM)
inactive: viability, T/C [1] 102% | viability, T/C [2] 108% | viability, T/C [3] 110% | viability, T/C [4] 123% | viability, T/C [25] 130% | viability, T/C [26] 57.2% | viability, T/C [5] 104% | viability, T/C [6] 112% | viability, T/C [7] 111% | viability, T/C [8] 120% | viability, T/C [29] 75.3% | viability, T/C [30] 38.4% | viability, T/C [9] 82.2% | viability, T/C [10] 64% | viability, T/C [11] 59.9% | viability, T/C [12] 51.3% | viability, T/C [33] 49.5% | viability, T/C [34] 26.6% | viability, T/C [13] 51% | viability, T/C [14] 38.1% | viability, T/C [15] 39.4% | viability, T/C [16] 32.5% | viability, T/C [37] 33.4% | viability, T/C [38] 27.5% | viability, T/C [17] 33.2% | viability, T/C [18] 32.3% | viability, T/C [19] 26.7% | viability, T/C [20] 25.8% | viability, T/C [41] 34.5% | viability, T/C [42] 29.8% | viability, T/C [21] 34.5% | viability, T/C [22] 32.2% | viability, T/C [23] 30.3% | viability, T/C [24] 33.1% | viability, T/C [45] 35.9% | viability, T/C [46] 25.3%
> 1000 nM: IC50 (second compound 0.000949 µM)
< 3.16 nM: IC50 (second compound 0.03 µM) | IC50 (second compound 0.0949 µM) | IC50 (second compound 0.3 µM)
112 nM: IC50 (second compound 0.00949 µM)

C[C@@H](NC(=O)c1ncnc(N)c1Cl)c1ncc(C(=O)Nc2cc(C(F)(F)F)c(Cl)cn2)s1 + CCn1c(-c2cc(N3CCN(C)CC3)cnc2C(C)OC)c2c3cc(ccc31)-c1csc(n1)CC(NC(=O)C1CC1C)C(=O)N1CCCC(N1)C(=O)OCC(C)(C)C2
1570 nM: IC50 (second compound 0.00949 µM)
inactive: viability, T/C [3] 102% | viability, T/C [4] 104% | viability, T/C [25] 117% | viability, T/C [26] 105% | viability, T/C [27] 96.3% | viability, T/C [28] 43.9% | viability, T/C [7] 114% | viability, T/C [8] 129% | viability, T/C [29] 102% | viability, T/C [30] 87.2% | viability, T/C [31] 66.2% | viability, T/C [32] 42.6% | viability, T/C [11] 95.3% | viability, T/C [12] 78% | viability, T/C [33] 72.5% | viability, T/C [34] 61% | viability, T/C [35] 35.8% | viability, T/C [36] 21.4% | viability, T/C [15] 58.9% | viability, T/C [16] 62.2% | viability, T/C [37] 42.3% | viability, T/C [38] 41.1% | viability, T/C [39] 30% | viability, T/C [40] 25.1% | viability, T/C [19] 41.9% | viability, T/C [20] 57.1% | viability, T/C [41] 38.5% | viability, T/C [42] 33.2% | viability, T/C [43] 23.2% | viability, T/C [44] 16.6% | viability, T/C [23] 36.3% | viability, T/C [24] 35.6% | viability, T/C [45] 39% | viability, T/C [46] 33.7% | viability, T/C [47] 22.6% | viability, T/C [48] 13.2%
< 31.6 nM: IC50 (second compound 0.0949 µM) | IC50 (second compound 0.3 µM)
8750 nM: IC50 (second compound 0.000949 µM)
243 nM: IC50 (second compound 0.03 µM)
6940 nM: IC50 (second compound 0.003 µM)
